{"source": "patent EP0034754A1", "about": "“2-((3-amino-2-hydroxy-propoxy)-styryl) isoxazoles, process for their preparation and pharmaceutical compositions containing them” (BASF Aktiengesellschaft, priority 1980, dated 1981)", "key": {"in vivo": {"assay": "in vivo", "details": "for LD50: mouse, ip"}, "[1]": {"tested_on": "Isoproterenol-Tachycardie", "assay": "ß-sympatholytic effect: inhibition of isoproterenol-induced tachycardia in despinalised rats", "assay_type": "in vivo", "details": "Rattus norvegicus, iv, 5 min, read-out: ß-Sympatholytische Wirkung Ratte i.v. ED 50 %", "description": "ß-sympatholytische Wirkung: • An despinalisierten Ratten (Stamm: Sprague Dawley, männlich, Gewicht 200 bis 240 g) verursacht Isoproterenol (0,1/ug/kg intravenös) Herfrequenzsteigerungen um durchschnittlich 121 + 2,1 min bei einer Ausgangsfrequenz von 268 + 3,9 min^-1 (Anzahl der Tiere N = 100). ß-Sympatholytika hemmen diese Frequenzsteigerungen spezifisch und dosisabhängig. Die Applikation der getesteten Substanzen erfolgt 5 min vor der Isoproterenolgabe.\nAls ED 50 % werden die Dosen ermittelt, welche die Isoproterenol-Tachycardie um 50 % hemmen.\nAls Referenzsubstanz dient das bekannte ß-Sympatholytikum Propranolol."}, "mittleren Carotisdruck": {"tested_on": "mittleren Carotisdruck", "assay": "Blood-pressure-lowering effect in the anaesthetised rat (urethane), carotid pressure", "assay_type": "in vivo, Ratte", "details": "i.v.; for ED20: Rattus norvegicus, iv, Sprague Dawley rats under urethane anaesthesia, dose lowering mean carotid pressure by 20 %, read-out: Blutdrucksenkende Wirkung Ratte i.v. ED 20 %", "excerpt": "Blutdrucksenkende Wirkung an der narkotisierten Ratte: • Zur Feststellung der blutdrucksenkenden Wirkung erhalten männliche Ratten (Stamm: Sprague Dawley, Gewicht: 230 bis 280 g) in Urethan-Narkose (1,78 g/kg intraperitoneal) die Prüfsubstanzen intravenös appliziert. Die Messung des Blutdruckes in der Aorta carotis erfolgt über Statham--Transducer.\nAls ED 20 % wird die Dosis ermittelt, welche den mittleren Carotisdruck um 20 % senkt."}, "[2]": {"details": "despinalised Sprague Dawley rats, i.v., given 5 min before isoproterenol 0,1 µg/kg i.v., dose inhibiting tachycardia by 50 %"}}, "note": "Read-outs that look alike come from different tables or passages of the source.", "data": [{"smiles": "COCc1cc(C=Cc2ccccc2OCC(O)CNC(C)C)on1", "note": "(stereo not drawn) [Beispiel 3, 3-Methoxymethyl-5-[2-(2-hydroxy-3-isopropylamino-propoxy)--styryl]-isoxazol]", "values": [{"measurement": "selectivity ratio", "setting": "in vivo", "result": 18900}, {"measurement": "LD50", "setting": "in vivo", "result": 121, "unit": "mg/kg"}, {"measurement": "ED50", "setting": "[1]; [2]", "result": 0.0064, "unit": "mg/kg"}, {"measurement": "ED20", "setting": "mittleren Carotisdruck", "result": 1, "unit": "mg/kg"}]}, {"smiles": "COCc1cc(C=Cc2ccccc2OCC(O)CNC(C)(C)C)on1", "note": "(stereo not drawn) [Beispiel 4, 3-Methoxymethyl-5-[2-(2-hydroxY-3-tert.-butylamino-prop-oxy)-styryl]-isoxazol]", "values": [{"measurement": "selectivity ratio", "setting": "in vivo", "result": 13500}, {"measurement": "LD50", "setting": "in vivo", "result": 100, "unit": "mg/kg"}, {"measurement": "ED50", "setting": "[1]; [2]", "result": 0.00742, "unit": "mg/kg"}, {"measurement": "ED20", "setting": "mittleren Carotisdruck", "result": 1, "unit": "mg/kg"}]}, {"smiles": "COCc1cc(C=Cc2ccccc2OCC(O)CNC2CC2)on1", "note": "(stereo not drawn) [Beispiel 9, 5-[2-(2-Hydroxy-3-cyclopropylamino-propoxy)-styryl]-3-methoxymethyl-isoxazol]", "values": [{"measurement": "selectivity ratio", "setting": "in vivo", "result": 12100}, {"measurement": "LD50", "setting": "in vivo", "result": 121, "unit": "mg/kg"}, {"measurement": "ED50", "setting": "[1]; [2]", "result": 0.01, "unit": "mg/kg"}]}, {"smiles": "Cc1noc(C=Cc2ccccc2OCC(O)CNC(C)(C)C)c1Cl", "note": "(stereo not drawn) [Beispiel 16, 4-Chlor-3-methyl-5-[2-(2-hydroxy-3-tert.-butylamino-prop-oxy)-styryl]-isoxazol]", "values": [{"measurement": "selectivity ratio", "setting": "in vivo", "result": 14700}, {"measurement": "LD50", "setting": "in vivo", "result": 147, "unit": "mg/kg"}, {"measurement": "ED50", "setting": "[1]; [2]", "result": 0.01, "unit": "mg/kg"}, {"measurement": "ED20", "setting": "mittleren Carotisdruck", "result": 1, "unit": "mg/kg"}]}, {"smiles": "Cc1noc(C=Cc2ccccc2OCC(O)CNC(C)C)c1Cl", "note": "(stereo not drawn) [Beispiel 17, 4-Chlor-3-methyl-5-[2-(2-hydroxy-3-isopropylamino-prop-oxy)-styryl]-isoxazol]", "values": [{"measurement": "selectivity ratio", "setting": "in vivo", "result": 75000}, {"measurement": "LD50", "setting": "in vivo", "result": 511, "unit": "mg/kg"}, {"measurement": "ED50", "setting": "[1]; [2]", "result": 0.00681, "unit": "mg/kg"}, {"measurement": "ED20", "setting": "mittleren Carotisdruck", "result": 1.95, "unit": "mg/kg"}]}, {"smiles": "CC(C)NCC(O)COc1cccc2ccccc12", "note": "(stereo not drawn) [Propranolol, reference compound]", "values": [{"measurement": "ED50", "setting": "[1]", "result": 0.0127, "unit": "mg/kg"}, {"measurement": "Blutdrucksenkende Wirkung", "setting": "mittleren Carotisdruck; rat, up to a dose of 2,15 mg/kg", "result": "senkt den Blutdruck bis zu einer Dosis von 2,15 mg/kg nicht"}]}]}
